Measured values from ChEMBL document CHEMBL5705899 (Biochem J, 2014).
The source made the active and inactive calls. No cut-off for these calls is given here.

Columns and labels:
[1] = molecular target: MAP/microtubule affinity-regulating kinase 3 (Homo sapiens) (UniProt P27448); test: Inhibition of human MARK3 at 1 uM using RBER-CHKtide as substrate in presence of 33P-ATP by ProQinase assay
[2] = molecular target: Serine/threonine-protein kinase D1 (Homo sapiens) (UniProt Q15139); test: Inhibition of recombinant human N-terminal His6-tagged PKD1 (2 to 912 residues) expressed in baculovirus infected Sf21 cells assessed as remaining activity at 1 uM using KKLNRTLSVA as substrate incubated for 30 mins in presence of [gamma-33P]ATP by filter binding method relative to control
Chain of Serine/threonine-protein kinase D1 (Homo sapiens) (Q15139 whole entry, the tested form may be a part): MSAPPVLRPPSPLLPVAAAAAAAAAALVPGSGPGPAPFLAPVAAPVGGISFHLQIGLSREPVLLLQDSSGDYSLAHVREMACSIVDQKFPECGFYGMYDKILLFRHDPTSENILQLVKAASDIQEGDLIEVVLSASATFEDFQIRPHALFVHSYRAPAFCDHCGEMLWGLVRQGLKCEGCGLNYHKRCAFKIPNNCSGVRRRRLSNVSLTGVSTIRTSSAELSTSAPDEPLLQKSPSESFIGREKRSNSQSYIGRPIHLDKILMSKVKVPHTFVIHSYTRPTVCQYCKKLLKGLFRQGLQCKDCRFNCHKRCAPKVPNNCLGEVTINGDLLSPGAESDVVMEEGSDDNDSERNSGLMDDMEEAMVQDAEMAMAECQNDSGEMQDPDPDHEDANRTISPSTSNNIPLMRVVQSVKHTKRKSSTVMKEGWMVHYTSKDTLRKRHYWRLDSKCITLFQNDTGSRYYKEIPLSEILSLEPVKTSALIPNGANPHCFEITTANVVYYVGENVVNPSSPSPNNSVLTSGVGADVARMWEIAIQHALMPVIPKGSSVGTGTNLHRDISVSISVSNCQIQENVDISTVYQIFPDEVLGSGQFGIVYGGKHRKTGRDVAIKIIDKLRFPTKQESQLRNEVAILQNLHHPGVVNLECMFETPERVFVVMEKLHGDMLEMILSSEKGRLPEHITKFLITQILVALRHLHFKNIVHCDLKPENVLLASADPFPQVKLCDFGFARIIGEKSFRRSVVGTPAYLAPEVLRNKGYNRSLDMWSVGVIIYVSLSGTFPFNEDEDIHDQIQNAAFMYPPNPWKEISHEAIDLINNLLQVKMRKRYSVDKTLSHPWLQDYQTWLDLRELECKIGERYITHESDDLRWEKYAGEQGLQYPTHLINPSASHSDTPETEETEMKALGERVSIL

[3] = molecular target: PAS domain-containing serine/threonine-protein kinase (Homo sapiens) (UniProt Q96RG2); test: Inhibition of human PASK at 1 uM using RBER-CHKtide as substrate in presence of 33P-ATP by ProQinase assay
Chain of PAS domain-containing serine/threonine-protein kinase (Homo sapiens) (Q96RG2 whole entry, the tested form may be a part): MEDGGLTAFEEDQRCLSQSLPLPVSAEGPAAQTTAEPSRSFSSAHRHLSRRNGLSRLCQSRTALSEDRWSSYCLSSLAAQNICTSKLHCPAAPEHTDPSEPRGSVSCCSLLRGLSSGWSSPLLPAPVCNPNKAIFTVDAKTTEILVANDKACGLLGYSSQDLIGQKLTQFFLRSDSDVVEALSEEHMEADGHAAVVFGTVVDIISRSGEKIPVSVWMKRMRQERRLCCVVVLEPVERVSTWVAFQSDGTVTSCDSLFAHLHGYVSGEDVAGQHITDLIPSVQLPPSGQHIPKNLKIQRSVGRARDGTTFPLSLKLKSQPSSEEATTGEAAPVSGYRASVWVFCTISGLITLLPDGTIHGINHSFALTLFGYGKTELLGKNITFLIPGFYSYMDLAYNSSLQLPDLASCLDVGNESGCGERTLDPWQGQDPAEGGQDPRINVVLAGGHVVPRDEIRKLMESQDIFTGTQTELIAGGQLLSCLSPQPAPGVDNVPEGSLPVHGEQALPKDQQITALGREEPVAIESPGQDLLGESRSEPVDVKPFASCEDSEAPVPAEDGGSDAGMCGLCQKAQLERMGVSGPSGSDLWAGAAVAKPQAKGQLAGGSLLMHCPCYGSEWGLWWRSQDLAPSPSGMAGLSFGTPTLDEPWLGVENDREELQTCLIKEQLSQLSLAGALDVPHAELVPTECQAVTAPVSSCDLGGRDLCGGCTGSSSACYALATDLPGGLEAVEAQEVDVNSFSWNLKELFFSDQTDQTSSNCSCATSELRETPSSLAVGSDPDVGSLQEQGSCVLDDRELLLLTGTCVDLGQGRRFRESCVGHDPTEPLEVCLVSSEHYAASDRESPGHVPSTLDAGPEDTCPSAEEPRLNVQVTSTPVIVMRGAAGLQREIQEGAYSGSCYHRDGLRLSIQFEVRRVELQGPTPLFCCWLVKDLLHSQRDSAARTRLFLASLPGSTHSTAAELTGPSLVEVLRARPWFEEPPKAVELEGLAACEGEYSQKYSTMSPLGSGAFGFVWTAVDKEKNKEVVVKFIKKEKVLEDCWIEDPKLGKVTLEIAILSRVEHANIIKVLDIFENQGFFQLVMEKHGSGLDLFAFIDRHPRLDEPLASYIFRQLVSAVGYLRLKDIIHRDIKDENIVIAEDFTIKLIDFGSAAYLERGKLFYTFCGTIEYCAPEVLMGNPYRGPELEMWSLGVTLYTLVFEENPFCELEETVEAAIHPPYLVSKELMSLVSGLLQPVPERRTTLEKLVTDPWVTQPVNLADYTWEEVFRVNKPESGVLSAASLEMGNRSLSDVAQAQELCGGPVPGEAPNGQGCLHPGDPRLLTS

[4] = molecular target: MAP kinase-activated protein kinase 5 (Homo sapiens) (UniProt Q8IW41); test: Inhibition of human MAPKAPK5 at 1 uM using RBER-CHKtide as substrate in presence of 33P-ATP by ProQinase assay
Chain of MAP kinase-activated protein kinase 5 (Homo sapiens) (Q8IW41 whole entry): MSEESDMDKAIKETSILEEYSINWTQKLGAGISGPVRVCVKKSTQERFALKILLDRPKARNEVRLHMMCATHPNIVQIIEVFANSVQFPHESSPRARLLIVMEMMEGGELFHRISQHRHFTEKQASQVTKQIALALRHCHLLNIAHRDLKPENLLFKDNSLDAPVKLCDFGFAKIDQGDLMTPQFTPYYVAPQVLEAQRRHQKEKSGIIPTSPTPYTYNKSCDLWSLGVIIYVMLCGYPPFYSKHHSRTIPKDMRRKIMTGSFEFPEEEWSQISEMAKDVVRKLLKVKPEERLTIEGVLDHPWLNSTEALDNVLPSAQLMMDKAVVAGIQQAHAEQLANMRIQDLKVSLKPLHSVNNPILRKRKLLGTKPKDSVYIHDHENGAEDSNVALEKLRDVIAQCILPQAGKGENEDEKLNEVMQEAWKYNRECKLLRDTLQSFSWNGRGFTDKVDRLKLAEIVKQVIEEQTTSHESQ

[5] = molecular target: Ephrin type-A receptor 4 (Homo sapiens) (UniProt P54764); test: Inhibition of human EPHA4 at 1 uM using polyEY as substrate in presence of 33P-ATP by ProQinase assay
[6] = molecular target: Serine/threonine-protein kinase PINK1, mitochondrial (Homo sapiens) (UniProt Q9BXM7); test: Inhibition of recombinant human N-terminal MBP-tagged PINK1 (1 to 570 residues) expressed in Escherichia coli assessed as remaining activity at 1 uM using KKSRGDYMTMQIG as substrate incubated for 30 mins in presence of [gamma-33P]ATP by filter binding method relative to control
Chain of Serine/threonine-protein kinase PINK1, mitochondrial (Homo sapiens) (Q9BXM7 whole entry, the tested form may be a part): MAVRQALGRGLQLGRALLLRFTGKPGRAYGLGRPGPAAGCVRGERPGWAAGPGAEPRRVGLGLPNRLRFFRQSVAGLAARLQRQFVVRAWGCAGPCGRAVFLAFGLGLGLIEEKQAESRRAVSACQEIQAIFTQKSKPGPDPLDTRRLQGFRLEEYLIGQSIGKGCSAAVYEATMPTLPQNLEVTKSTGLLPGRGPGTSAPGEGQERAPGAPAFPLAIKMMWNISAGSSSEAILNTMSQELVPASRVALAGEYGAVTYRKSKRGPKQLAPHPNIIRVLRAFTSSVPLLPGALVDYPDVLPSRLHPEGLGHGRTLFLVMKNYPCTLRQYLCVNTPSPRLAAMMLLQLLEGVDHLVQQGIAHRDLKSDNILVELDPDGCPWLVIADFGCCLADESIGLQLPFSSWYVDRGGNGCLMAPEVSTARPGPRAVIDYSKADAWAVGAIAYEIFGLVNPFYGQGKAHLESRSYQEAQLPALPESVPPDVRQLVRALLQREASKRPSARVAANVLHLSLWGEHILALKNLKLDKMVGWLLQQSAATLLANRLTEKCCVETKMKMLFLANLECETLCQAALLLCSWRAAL

[7] = molecular target: Serine/threonine-protein kinase MARK1 (Homo sapiens) (UniProt Q9P0L2); test: Inhibition of recombinant human N-terminal His6-tagged MARK1 (2 to 795 residues) expressed in baculovirus infected Sf21 cells assessed as remaining activity at 1 uM using KKKVSRSGLYRSPSMPENLNRPR as substrate incubated for 30 mins in presence of [gamma-33P]ATP by filter binding method relative to control
Chain of Serine/threonine-protein kinase MARK1 (Homo sapiens) (Q9P0L2 whole entry, looked up, the tested form may be a part): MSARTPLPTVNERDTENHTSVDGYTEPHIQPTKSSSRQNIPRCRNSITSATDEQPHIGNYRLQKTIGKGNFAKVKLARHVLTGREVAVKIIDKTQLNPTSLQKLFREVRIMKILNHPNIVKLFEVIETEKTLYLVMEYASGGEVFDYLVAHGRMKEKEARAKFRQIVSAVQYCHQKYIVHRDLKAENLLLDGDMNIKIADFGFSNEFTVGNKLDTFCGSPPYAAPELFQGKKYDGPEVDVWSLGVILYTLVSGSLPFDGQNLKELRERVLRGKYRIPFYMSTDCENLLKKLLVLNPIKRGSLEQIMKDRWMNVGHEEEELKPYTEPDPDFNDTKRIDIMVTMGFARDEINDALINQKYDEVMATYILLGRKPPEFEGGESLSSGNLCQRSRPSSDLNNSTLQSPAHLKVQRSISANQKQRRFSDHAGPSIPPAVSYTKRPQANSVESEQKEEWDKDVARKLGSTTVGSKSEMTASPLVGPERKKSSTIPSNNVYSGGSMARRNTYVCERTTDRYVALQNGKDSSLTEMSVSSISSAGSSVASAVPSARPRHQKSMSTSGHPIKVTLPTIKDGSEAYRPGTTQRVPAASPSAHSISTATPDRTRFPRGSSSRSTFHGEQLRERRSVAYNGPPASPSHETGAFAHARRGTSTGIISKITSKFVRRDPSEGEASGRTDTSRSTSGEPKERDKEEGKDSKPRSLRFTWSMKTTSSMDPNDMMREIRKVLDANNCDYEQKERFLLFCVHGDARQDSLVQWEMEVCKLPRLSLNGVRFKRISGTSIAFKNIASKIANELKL

[8] = molecular target: Protein-tyrosine kinase 2-beta (Homo sapiens) (UniProt Q14289); test: Inhibition of human PYK2 at 1 uM using polyEY as substrate in presence of 33P-ATP by ProQinase assay
[9] = molecular target: Testis-specific serine/threonine-protein kinase 1 (Homo sapiens) (UniProt Q9BXA7); test: Inhibition of human TSSK1 at 1 uM using RBER-CHKtide as substrate in presence of 33P-ATP by ProQinase assay
[10] = molecular target: Rho-associated protein kinase 1 (Homo sapiens) (UniProt Q13464); test: Inhibition of human ROCK1 at 1 uM using 3xChocktide-PKC as substrate in presence of 33P-ATP by ProQinase assay
[11] = molecular target: Wee1-like protein kinase (Homo sapiens) (UniProt P30291); test: Inhibition of human WEE1 at 1 uM using poly(Ala,Glu,Lys,Tyr) as substrate in presence of 33P-ATP by ProQinase assay
Chain of Wee1-like protein kinase (Homo sapiens) (P30291 whole entry, looked up, the tested form may be a part): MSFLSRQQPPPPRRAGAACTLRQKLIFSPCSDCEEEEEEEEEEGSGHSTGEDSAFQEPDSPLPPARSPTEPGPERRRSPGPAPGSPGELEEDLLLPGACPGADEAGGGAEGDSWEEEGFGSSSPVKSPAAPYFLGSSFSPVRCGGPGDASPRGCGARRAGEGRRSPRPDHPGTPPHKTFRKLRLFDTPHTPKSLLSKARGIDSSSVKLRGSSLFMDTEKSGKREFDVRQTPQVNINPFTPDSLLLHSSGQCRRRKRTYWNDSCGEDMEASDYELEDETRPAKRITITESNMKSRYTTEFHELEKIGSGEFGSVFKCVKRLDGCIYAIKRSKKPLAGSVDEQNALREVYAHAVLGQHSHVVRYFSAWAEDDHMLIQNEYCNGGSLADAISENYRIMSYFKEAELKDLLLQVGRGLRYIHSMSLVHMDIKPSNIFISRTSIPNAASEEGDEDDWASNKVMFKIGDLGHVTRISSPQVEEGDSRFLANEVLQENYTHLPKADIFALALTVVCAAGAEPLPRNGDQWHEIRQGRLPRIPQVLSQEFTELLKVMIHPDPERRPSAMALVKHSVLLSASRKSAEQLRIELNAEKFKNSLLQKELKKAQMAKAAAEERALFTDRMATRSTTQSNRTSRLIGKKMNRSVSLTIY

[12] = molecular target: Phosphatidylinositol 3-kinase C2 domain-containing subunit gamma (Homo sapiens) (UniProt O75747); test: Inhibition of PI3KC2gamma (unknown origin) at 1 uM
[13] = molecular target: Diacylglycerol kinase gamma (Homo sapiens) (UniProt P49619); test: Inhibition of recombinant human N-terminal His6-tagged DGKgamma (1 to 752 residues) expressed in baculovirus expression system at 1 uM using diacyl-glycerol as substrate incubated for 40 mins by ADP-Glo assay
[14] = molecular target: Fibroblast growth factor receptor 1 (Homo sapiens) (UniProt P11362); test: Inhibition of recombinant human N-terminal His6-tagged FGFR1 (400 to 820 residues) expressed in baculovirus infected Sf21 cells assessed as remaining activity at 1 uM using Poly(Glu,Tyr) as substrate incubated for 30 mins in presence of [gamma-33P]ATP by filter binding method relative to control
[15] = molecular target: CDK6/cyclin D1 (Homo sapiens) (UniProt P24385+Q00534); test: Inhibition of human CDK6/CycD1 at 1 uM using RBER-CHKtide as substrate in presence of 33P-ATP by ProQinase assay; assay type: protein-complex assay
[16] = molecular target: Dual specificity protein kinase TTK (Homo sapiens) (UniProt P33981); test: Inhibition of human TTK at 1 uM using RBER-CHKtide as substrate in presence of 33P-ATP by ProQinase assay
[17] = molecular target: Casein kinase I isoform gamma-2 (Homo sapiens) (UniProt P78368); test: Inhibition of human CK1gamma2 at 1 uM using casein as substrate in presence of 33P-ATP by ProQinase assay
[18] = molecular target: Death-associated protein kinase 1 (Homo sapiens) (UniProt P53355); test: Inhibition of recombinant human N-terminal GST-tagged DAPK1 (1 to 363 residues) expressed in Escherichia coli assessed as remaining activity at 1 uM using KKLNRTLSFAEPG as substrate incubated for 30 mins in presence of [gamma-33P]ATP by filter binding method relative to control
[19] = molecular target: Dual specificity protein kinase CLK3 (Homo sapiens) (UniProt P49761); test: Inhibition of human CLK3 at 1 uM using RB-S6P as substrate in presence of 33P-ATP by ProQinase assay
[20] = molecular target: Tyrosine-protein kinase HCK (Homo sapiens) (UniProt P08631); test: Inhibition of human HCK at 1 uM using polyEY as substrate in presence of 33P-ATP by ProQinase assay
[21] = species: Homo sapiens; test: Inhibition of DGK (unknown origin) at 1 uM
[22] = molecular target: Receptor-interacting serine/threonine-protein kinase 2 (Homo sapiens) (UniProt O43353); test: Inhibition of recombinant human N-terminal GST-tagged RIPK2 (2 to 311 residues) expressed in baculovirus infected Sf21 cells assessed as remaining activity at 1 uM using MBP as substrate incubated for 30 mins in presence of [gamma-33P]ATP by filter binding method relative to control
[23] = molecular target: RAC-beta serine/threonine-protein kinase (Homo sapiens) (UniProt P31751); test: Inhibition of human AKT2 at 1 uM using RBER-GSK3 as substrate in presence of 33P-ATP by ProQinase assay
[24] = molecular target: Proto-oncogene tyrosine-protein kinase Src (Homo sapiens) (UniProt P12931); test: Inhibition of recombinant human N-terminal His6-tagged SRC (1 to 536 residues) expressed in baculovirus infected Sf21 cells assessed as remaining activity at 1 uM using KVEKIGEGTYGVVYK as substrate incubated for 30 mins in presence of [gamma-33P]ATP by filter binding method relative to control
[25] = molecular target: Mitogen-activated protein kinase 8 (Homo sapiens) (UniProt P45983); test: Inhibition of human JNK1 at 1 uM using ATF2 as substrate in presence of 33P-ATP by ProQinase assay

With `CC(C)(O)CNc1ncc(-c2ccnc(Nc3ccnc(Cl)c3)n2)c(CC2CC2)n1` the inhibition [1] was “inactive”, the Activity [2] was 115% and the inhibition [3] was “inactive”. The inhibition [4] was “inactive”, the inhibition [5] was “inactive” and the Activity [6] was 109%. The Activity [7] was 114%, the inhibition [8] was “inactive” and the inhibition [9] was “inactive”. For the same compound, the inhibition [10] was “inactive”, the inhibition [11] was “inactive” and the inhibition [12] was “inactive”. For the same compound, the inhibition [13] was “inactive”, the Activity [14] was 95% and the inhibition [15] was “inactive”. For the same compound, the inhibition [16] was “inactive”, the inhibition [17] was “inactive” and the Activity [18] was 96%. The inhibition [19] was “inactive”, the inhibition [20] was “inactive” and the inhibition [21] was “inactive”. For the same compound, the Activity [22] was 79%, the inhibition [23] was “inactive” and the Activity [24] was 84%. For the same compound, the inhibition [25] was “inactive”.
